Measurements from article PMC4813125, “Identification of Human UDP-Glucuronosyltransferase 1A4 as the Major Isozyme Responsible for the Glucuronidation of 20(S)-Protopanaxadiol in Human Liver Microsomes” (International Journal of Molecular Sciences, 2016).

Tests used:
[1] = tested on: PPD glucuronidation in pooled HLMs; assay: Chemical inhibition of PPD glucuronidation in pooled HLMs; assay type: in vitro ADME, human; details: PPD 50 μM; for inhibition of PPD glucuronidation (in words): inhibitor 5, 50, and 200 μM
Protocol: Fluconazole, androsterone, estradiol, and hecogenin [25, 34] were used to inhibit their potential inhibitory effects on PPD glucuronidation in pooled HLMs. A set of concentrations (5, 50, and 200 μM) was used for all four inhibitors. The concentration of PPD was set at 50 μM. The reaction time and protein concentration were set at 60 min and 0.5 mg/mL, respectively. All other incubation conditions were the same as those for Glucuronidation of PPD in pooled HLMs described above. The concentration of organic solvent was 1% of the total incubation volume. An experimental group without inhibitors but with solvents was used as the control, in which the activities of PPD glucuronidation were designated as 100%. The activities of PPD glucuronidation in the inhibited samples were compared with the control to evaluate the remaining enzyme activity. For determination of IC50 (representing the concentration that inhibits 50% of the control activity) of hecogenin, experiments with a set of concentrations of hecogenin (1–400 μM) in pooled HLMs were conducted.

[2] = tested on: pooled human liver microsomes (HLMs); assay: Kinetics of PPD glucuronidation by pooled human liver microsomes; assay type: in vitro ADME; details: formation of PPDG
Protocol: (§1) In vitro PPD glucuronidation was in an incubation volume of 100 μL. Incubation conditions were initially optimized for the linear product formation with respect to protein concentration (0.2–1 mg/mL), and incubation time (15–120 min). The stock solution of PPD was prepared in dimethyl sulfoxide (DMSO), and the final concentration of DMSO in the incubations was 1% (v/v). Briefly, the incubation mixture contained HLMs or RLMs (0.5 mg of protein/mL), UDPGA (2 mM), MgCl2 (4 mM), alamethicin (25 μg/mg protein), PPD (10–500 μM), and Tris–HCl buffer (50 mM, pH 7.4). The mixture was incubated for 5 min at 37 °C, and then the reaction was started by the addition of UDPGA and incubated in a shaking water bath for 60 min. The reaction was terminated by addition of 200 μL of ice-cold acetonitrile containing GRg1 (internal standard (IS), 0.5 μg/mL) and then centrifuged at 15,000× g for 10 min at 4 °C. The supernatant was evaporated to dryness under nitrogen gas at room temperature, and the residue was reconstituted with 200 µL of 20% acetonitrile. After centrifugation at 15,000× g for 10 min at 4 °C, 5 μL of the supernatants was subjected to analysis. Incubations without PPD and UDPGA were served as blank and negative controls, respectively.
(§2) Quantitative analysis was conducted on an Agilent 1290 infinity system (Agilent Technologies, Santa Clara, CA, USA) coupled with an MS/MS detector (6410 B Triple Quad LC/MS; Agilent Technologies) in negative ion mode. The chromatographic separations were performed on an ACQUITY UPLC HSS T3 column (100 mm × 2.1 mm i. d. (inner diameter), 1.8 μm) thermostated at 45 °C. The mobile phase consisted of A (5 mM ammonium acetate in water) and B (acetonitrile) at a flow rate of 0.4 mL/min. The gradient elution program was set as follow: 0–2 min 20%–50% B, 2–4 min 50%–60% B, 4–5 min 60% B and finally, reconditioning the column with 20% B for 1 min. Optimized ion source parameters were set as follows: gas temperature 325 °C; gas flow 10 L/min; nebulizer 35 psi; capillary voltage 3500 V; fragmentor voltage 265 V for PPDG and 215 V for IS; cell accelerator voltage 0 V; dwell time 200 ms. Data were acquired in multiple reaction monitor (MRM) mode for the following transitions: m/z 635.4 to m/z 375.1 for PPDG and m/z 799.5 to m/z 637.6 for IS, with the collision energy being set at 50 and 26 V, respectively.
(§3) All results were obtained from three replicates in different microsomal incubations, and all the data were expressed as mean ± SD. To estimate the kinetic parameters, data were transformed and Eadie–Hofstee curves were plotted, which help to identify kinetic models. […] In addition, CLmax was calculated according to the Equation (2). […]

[3] = tested on: pooled rat liver microsomes (RLMs); assay: Kinetics of PPD glucuronidation by pooled rat liver microsomes; assay type: in vitro ADME; details: formation of PPDG
Protocol: as §1, §2, §3

human recombinant UGT1A4 [4] = biological target: T1, human recombinant UGT1A4 (Homo sapiens, UniProt P22310); assay: Kinetics of PPD glucuronidation by recombinant UGT1A4; assay type: in vitro ADME; details: formation of PPDG
T1 sequence (P22310 29-534): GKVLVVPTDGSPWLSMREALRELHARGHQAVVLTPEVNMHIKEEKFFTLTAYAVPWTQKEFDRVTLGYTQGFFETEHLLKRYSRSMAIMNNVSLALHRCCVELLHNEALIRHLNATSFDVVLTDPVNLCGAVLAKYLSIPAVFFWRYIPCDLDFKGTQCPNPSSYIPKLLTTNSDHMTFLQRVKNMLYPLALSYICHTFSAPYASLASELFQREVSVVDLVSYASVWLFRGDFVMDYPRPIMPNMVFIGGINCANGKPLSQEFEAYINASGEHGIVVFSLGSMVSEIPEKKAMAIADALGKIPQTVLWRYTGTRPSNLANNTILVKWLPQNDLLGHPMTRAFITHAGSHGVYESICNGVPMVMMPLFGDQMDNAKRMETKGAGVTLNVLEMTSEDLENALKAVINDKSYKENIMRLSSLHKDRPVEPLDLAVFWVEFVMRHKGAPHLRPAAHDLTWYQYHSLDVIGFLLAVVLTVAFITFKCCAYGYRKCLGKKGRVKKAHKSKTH
Protocol: (§4) A kinetic study for PPD glucuronidation by human recombinant UGT 1A4 was also conducted by incubating PPD with human recombinant UGT 1A4 at protein concentration of 0.25 mg/mL for 1 h. All other incubation conditions were identical to those of glucuronidation of PPD in pooled HLMs.
(§5) All results were obtained from three replicates in different microsomal incubations, and all the data were expressed as mean ± SD. To estimate the kinetic parameters, data were transformed and Eadie–Hofstee curves were plotted, which help to identify kinetic models. Then kinetic parameters were obtained by fitting velocity data to the sigmoidal kinetic (Hill) model (Equation (1)) using Graph Pad Prism 5.0 software (San Diego, CA, USA). In addition, CLmax was calculated according to the Equation (2). (1) V=Vmax × [S]^n/S50n + [S]^n (2) CLmax = Vmax/S50 × n−1/n(n−1)^1/n
(§6) V is reaction velocity, Vmax is the maximum reaction velocity, [S] is the substrate concentration, S50 is the substrate concentration at 0.5 Vmax (analogous to Km in the Michaelis–Menten equation), n is the Hill coefficient (which reflects the degree of sigmoidicity of the velocity versus substrate-concentration relationship), CLmax is the maximum clearance, which provides an estimate of the highest clearance attained.

human recombinant UGT1A3 = biological target: T2, human recombinant UGT1A3 (Homo sapiens, UniProt P35503); assay: PPD glucuronidation with recombinant human UGT1A3; assay type: in vitro ADME; details: UGT1A3 0.25 mg protein/mL
T2 construct: purchased BD Gentest
T2 sequence (P35503 29-534): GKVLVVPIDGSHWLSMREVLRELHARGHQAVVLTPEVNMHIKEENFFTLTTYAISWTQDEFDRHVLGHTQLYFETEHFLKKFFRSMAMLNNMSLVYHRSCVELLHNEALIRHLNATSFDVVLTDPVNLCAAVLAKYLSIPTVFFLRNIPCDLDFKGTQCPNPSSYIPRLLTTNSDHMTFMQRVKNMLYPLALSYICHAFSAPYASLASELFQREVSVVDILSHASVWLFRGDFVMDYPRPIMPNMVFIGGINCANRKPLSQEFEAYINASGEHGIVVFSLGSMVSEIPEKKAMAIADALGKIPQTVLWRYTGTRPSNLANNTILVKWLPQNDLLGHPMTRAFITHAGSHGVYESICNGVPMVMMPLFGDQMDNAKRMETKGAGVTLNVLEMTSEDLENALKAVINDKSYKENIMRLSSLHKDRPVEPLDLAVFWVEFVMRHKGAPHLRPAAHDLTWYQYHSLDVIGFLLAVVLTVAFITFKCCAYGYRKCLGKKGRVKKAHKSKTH
Protocol: (§7) PPD glucuronidation was measured in reaction mixtures containing human recombinant UGT1A1, 1A3, 1A4, 1A6, 1A7, 1A8, 1A9, 1A10, 2B4, 2B7, 2B15, and 2B17. Three substrate concentrations (10, 50, and 200 μM) were used in this study. The incubation conditions were the same as those for Glucuronidation of PPD in pooled HLMs described above except for the protein concentration (0.25 mg/mL).

[5] = tested on: human recombinant UGT1A1, 1A6, 1A7, 1A8, 1A9, 1A10, 2B4, 2B7, 2B15, and 2B17; assay: PPD glucuronidation with other recombinant human UGT isozymes; assay type: in vitro ADME; details: PPD 10, 50, and 200 μM, 0.25 mg protein/mL
Protocol: as §7

[6] = parameters: method as in PMID 23494798; details: previous studies ref 13; cited from earlier work
human recombinant UGT1A4 [7] = biological target: T1, human recombinant UGT1A4; assay: PPD glucuronidation with recombinant human UGT1A4; assay type: in vitro ADME; parameters: purchased BD Gentest; details: UGT1A4 0.25 mg protein/mL
Protocol: as §7

[8] = substrate: CC(C)=CCC[C@](C)(O)C1CC[C@]2(C)[C@@H]1[C@H](O)CC1[C@@]3(C)CC[C@H](O)C(C)(C)C3CC[C@]12C; assay: Kinetics of PPD glucuronidation by recombinant UGT1A4; assay type: in vitro ADME, human; details: other: formation of PPDG, recombinant UGT1A4, Hill kinetics, 10–500 μM PPD
Protocol: as §4, §5, §6

[9] = HLMs, Hill kinetics, 10–500 μM PPD
[10] = RLMs, Hill kinetics, 10–500 μM PPD

Molecule: C[C@]12CC[C@@H]3c4ccc(O)cc4CC[C@H]3[C@@H]1CC[C@@H]2O [estradiol]
- inhibition of PPD glucuronidation (in words) ([1]; pooled HLMs 0.5 mg/mL): weak inhibition

Molecule: hecogenin
- IC50 ([1]; pooled HLMs, hecogenin 1–400 μM): 21.3 ± 4.31 µM
- inhibition of PPD glucuronidation (in words) ([1]; pooled HLMs 0.5 mg/mL): concentration-dependent inhibitory effect
- inhibitory effect on PPD glucuronidation compared with the solvent control ([1]; inhibitor at 50 µM, pooled HLMs 0.5 mg/mL): more than 60%

Molecule: C[C@]12CC[C@@H](O)C[C@@H]1CC[C@@H]1[C@@H]2CC[C@]2(C)C(=O)CC[C@@H]12 [androsterone]
- inhibition of PPD glucuronidation (in words) ([1]; pooled HLMs 0.5 mg/mL): weak inhibition

Molecule: CC(C)=CCC[C@](C)(O)[C@H]1CC[C@]2(C)[C@@H]1[C@H](O)C[C@@H]1[C@@]3(C)CC[C@H](O)C(C)(C)[C@@H]3CC[C@]12C [PPD, 20(S)-protopanaxadiol]
- Vmax ([2]; HLMs 0.5 mg protein/mL, Hill kinetics, 10–500 μM PPD, mean ± SD): 0.32 ± 0.01 nmol/min/mg Protein
- S50 [2, 9]: 42.80 ± 0.73 µM
- n (Hill coefficient) [2, 9]: 2.12 ± 0.24
- CLmax ([2]; HLMs, calculated by Equation (2)): 3.70 ± 0.01 μL/min/mg Protein
- Vmax ([3]; RLMs 0.5 mg protein/mL, Hill kinetics, 10–500 μM PPD, mean ± SD): 0.30 ± 0.01 nmol/min/mg Protein
- S50 [3, 10]: 20.68 ± 1.39 µM
- n (Hill coefficient) [3, 10]: 2.50 ± 0.48
- CLmax ([3]; RLMs, calculated by Equation (2)): 7.36 ± 0.27 μL/min/mg Protein
- Vmax (human recombinant UGT1A4 [4]; recombinant UGT1A4 0.25 mg/mL, Hill kinetics, 10–500 μM PPD, mean ± SD): 0.31 ± 0.01 nmol/min/mg Protein
- n (Hill coefficient) (human recombinant UGT1A4 [4]; recombinant UGT1A4, Hill kinetics, 10–500 μM PPD): 2.34 ± 0.23
- CLmax (human recombinant UGT1A4 [4]; recombinant UGT1A4, calculated by Equation (2)): 8.39 ± 0.79 μL/min/mg Protein
- catalytic activity towards PPD glucuronidation (human recombinant UGT1A3; PPD 10 μM): 0.02 ± 0.004 nmol/min/mg protein
- catalytic activity towards PPD glucuronidation (human recombinant UGT1A3; PPD 50 μM): 0.04 ± 0.004 nmol/min/mg protein
- catalytic activity towards PPD glucuronidation (human recombinant UGT1A3; PPD 200 μM): 0.04 ± 0.003 nmol/min/mg protein
- PPD glucuronidation by other UGT isozymes (in words) [5]: did not participate in this metabolism
- oral bioavailability [6]: ~30%
- catalytic activity towards PPD glucuronidation (human recombinant UGT1A4 [7]; PPD 10 μM): 0.06 ± 0.01 nmol/min/mg protein
- catalytic activity towards PPD glucuronidation (human recombinant UGT1A4 [7]; PPD 50 μM): 0.18 ± 0.01 nmol/min/mg protein
- catalytic activity towards PPD glucuronidation (human recombinant UGT1A4 [7]; PPD 200 μM): 0.35 ± 0.05 nmol/min/mg protein

Molecule: OC(Cn1cncn1)(Cn1cncn1)c1ccc(F)cc1F [Fluconazole, fluconazole]
- inhibition of PPD glucuronidation (in words) ([1]; pooled HLMs 0.5 mg/mL): no inhibition

B1: human recombinant UGT 1A4 (Homo sapiens) (protein)
chain: GKVLVVPTDGSPWLSMREALRELHARGHQAVVLTPEVNMHIKEEKFFTLTAYAVPWTQKEFDRVTLGYTQGFFETEHLLKRYSRSMAIMNNVSLALHRCCVELLHNEALIRHLNATSFDVVLTDPVNLCGAVLAKYLSIPAVFFWRYIPCDLDFKGTQCPNPSSYIPKLLTTNSDHMTFLQRVKNMLYPLALSYICHTFSAPYASLASELFQREVSVVDLVSYASVWLFRGDFVMDYPRPIMPNMVFIGGINCANGKPLSQEFEAYINASGEHGIVVFSLGSMVSEIPEKKAMAIADALGKIPQTVLWRYTGTRPSNLANNTILVKWLPQNDLLGHPMTRAFITHAGSHGVYESICNGVPMVMMPLFGDQMDNAKRMETKGAGVTLNVLEMTSEDLENALKAVINDKSYKENIMRLSSLHKDRPVEPLDLAVFWVEFVMRHKGAPHLRPAAHDLTWYQYHSLDVIGFLLAVVLTVAFITFKCCAYGYRKCLGKKGRVKKAHKSKTH
notes: purchased BD Gentest
- K0.5 [8]: 18.49 ± 1.85 µM
- Vmax [8]: 0.00031 µmol/min/mg
